In US9072730B2, “Method of improving cognitive functions in individuals with down syndrome and/or alzheimer's disease” (The Board of Trustees of the Leland Stanford Junior …, priority 2009, dated 2015):
Entries after “also recorded” stand apart in the source; their conditions may differ. Blank lines part the entries; values can stand above or below the compound they belong to.

Columns and labels:
acute hippocampal slices = experiment: Evoked field potentials in acute hippocampal slices (dentate gyrus); parameters: species or system mouse
Description: Three and 6-month-old 2N and Ts65Dn mice were anesthetized with isoflurane before decapitation. The brain was quickly removed and immersed for 2-3 min in ice-cold artificial CSF (ACSF) [containing (in mM): 119 NaCl, 2.5 Kcl, 2.5 CaCl2, 1.3 MgSO4, 1 NaH2PO4, 26 NaHCO3, and 10 glucose], osmolarity 310, continuously bubbled with 95% 02 and 5% CO2, pH 7.4. The HC was extracted and cut in ice-cold ACSF with a vibratome (Leica 1000; Leica, Nussloch, Germany) into 350-μm-thick transverse slices, which were allowed to recover in oxygenated ACSF at 32° C. for 30 min, and then at room temperature for an additional 1-10 hr before experimental recordings. Slices were transferred into the recording chamber and superfused with ACSF at a constant rate of 2.5 ml/min at a temperature of 32° C. Recording electrodes were made of borosilicate glass capillaries (1B150F, World Precision Instruments, Sarasota, Fla.) and were filled with 2M NaCl (resistance […]). Mono polar stimulating electrode was maid of Pt/Ir wires with diameter 25.4 μm (PTT0110, World Precision Instruments, Sarasota, Fla.) and had 100-μm-long exposed tip. The stimulating electrode was inserted under visual control perpendicular to the slice surface into the middle molecular layer (MML), and the recording electrode into the granule cell layer of the DG upper blade. The distance between the electrodes was 250-300 μm. Testing stimuli evoked field responses with population spike amplitudes 65-75% of maximum. The amplitude of the population spike was measured as follows: a line was drawn at the base of the population spike connecting the first and second peaks of the field response, a second line was drawn at the peak of the population spike (i.e., at the peak of the downward deflection), and at the peak of the spike, a line was drawn vertically between these two lines, thus giving the amplitude of the population spike. The magnitude of the fEPSP was measured as the initial slope of the linear part of the fEPSP, which occurred 0.1-1 ms after the presynaptic volley. […]

Ts65Dn mice [1] = experiment: Contextual and tone-cued fear conditioning test; assay type: in vivo, mouse
Description: Contextual and tone-cued fear conditioning tests were performed using the Fear Conditioning Video Tracking System (Med-Associates Inc., St. Albans, Vt.). To reduce the stress, each mouse was handled for 5 days. After that, the mice underwent three days of Training day, Tone-Cued in novel context testing day, and Contextual testing day. In the first day, mice went through the Training session. Prior to conditioning, each mice had 3 min to explore the Test Chamber (baseline activity and then they received five tone-shock pairings). The shock (0.5 mA, 50 Hz, 2 sec) delivered after 18 sec from the end of the tone (70 dB, 2 kHz, 20 sec). Therefore, an empty trace interval interposed between the tone and the shock in each conditional stimulus-unconditional stimulus pairing. On the second day (Tone-cued testing day), mice were placed in the novel context (new olfactory and visual cues) for 3 min and subsequently were presented three tone presentations (same as the Training Day) without any shocks. On the last day of the experiment, mice were placed in the context similar to the Training Day for 5 min without any tones or shocks. The effect of L-DOPS on fear conditioning was investigated by treating Ts65Dn mice and their controls 5 hours before the start of each test. The treated mice underwent three days of Training day, Cued testing day and Contextual testing day. L-DOPS was diluted (20 mg/ml) in 0.2M HCL containing 2 mg/ml ascorbic acid. The pH was neutralized with 10M NAOH just before the injection. To counter the peripheral effects of L-DOPS, S-(−) carbidopa was used. Carbidopa was diluted in the same solution (2.5 mg/ml) as L-DOPS. Two groups (10 pairs each) of 5-6-month-old male Ts65Dn and 2N mice were either injected with carbidopa (2.5 mg/ml) or a combination of 20 mg/ml L-DOPS and 2.5 mg/ml carbidopa (50 μl/g subcutaneously) five hours before the start in all 3 days of the experiment. Six-months-old 2N (CD=13, CD+L-DOpS=11) and Ts65Dn (CD=10, CD+L-DOPS=9) mice were used for this study. The effect of β1-partial agonist (xamoterol) on Ts65Dn mice and their controls […]. Xamoterol hemifumarate (Tocris Bioscience, Ellisville, Mich.) was freshly diluted in saline. Two groups of 9-month-old (19 2N and 15 Ts65Dn) mice were subcutaneously injected either with xamoterol (3 mg/kg) or saline (10 ml/kg) exactly […] before all 3 days of fear conditioning test. Nine-months-old 2N (saline=4, xamoterol=8), and Ts65Dn (saline=4, xamoterol=6) mice were used for this study. The data tested using one-way analysis of variance (ANOVA) between the genotypes. The significance of genotype and treatment effects was confirmed by a non-parametric Mann-Whitney U-tests.

Ts65Dn mice [2] = experiment: Nesting behavior analysis; assay type: in vivo, mouse
Description: The nesting experiment was performed using 10 pairs of 6-month-old male Ts65Dn (CD=10, CD+L-DOPS=10) and 2N (CD=10, CD+L-DOPS=10) mice. The nesting behavior was analyzed in three different periods (sham, drug and no treatment): Each mouse was placed in individual mouse cages for 4 days. On day 5, each mouse was injected subcutaneously at 1 PM with 50 μl/g of (2.5 mg/ml) carbidopa (Sigma) and returned to their individual cages. The next day, mice were injected the same amount of carbidopa as the day before at 1 PM. At 6 PM, the mice were transferred to a rat cage and one nestlet was placed in each cage. Next morning, the nesting was scored by three investigators blind to the genotype. This was followed by weighing the remaining nestlets. Following the sham experiment, mice were returned to their individual mouse cages without any nestlets for 6 days. On day 7, the mice were injected subcutaneously (50 μl/g) of a combination of (20 mg/ml) L-DOPS and carbidopa (2.5 mg/ml) at 1 PM and were returned to their individual mouse cages. Next day the injection was repeated at 1 PM and at 6 PM the mice were transferred to clean rat cage with one nestlet. The quality and quantity of nesting was scored the morning after. The mice were kept in individual cages for two weeks to minimize the effects of L-DOPS treatment on nesting. […] The quality and quantity of nesting was scored the morning after.

[3] = Norepinephrine and L-DOPS determination in tissue by UV-HPLC; assay type: in vivo, mouse
Description: Mice were deeply anesthetized using sodium pentobarbital (200 mg/kg i.p.) and brains were extracted immediately. The right hippocampal region dissected out on ice, weighed, and frozen shortly after. The rest of the right hemisphere was also weighed and collected. For homogenization, 1 ml of ice-cold 0.05 M phosphoric acid (Sigma) with 10 μl of […] of 3,4-Dihydrxybenzylamine hydrobromide (DHBA; Sigma) used as an internal standard. The tissue samples were sonicated for 3 seconds on ice. The resulting homogenates were centrifuged at 15,000 g for 15 minutes at 4° C. The resulting supernatant was transferred to a conical tube containing 1 ml of 3M tris (pH: 8.6) with 90 mg acid-washed aluminum oxide (Sigma). The mixture was rotated at 4° C. overnight. The alumina was centrifuged for 10 seconds, and washed briefly with 6 mM tris (pH: 8.6) and 3 changes of water (HPLC grade). After final centrifugation, the resulting precipitate was mixed with 1.8 ml of 0.05M H3PO4 (Sigma, puriss>99%) for 30 minutes at 4° C. The solution was filtered with a 0.2 μm filter and used for UV-based HPLC. 4.5 months-old (N=4 pairs of 2N and Ts65Dn) and 18 months (2N; N=8 and Ts65Dn; N=6) were used for this study.
A UV-HPLC machine (Varian, Chicago) equipped with an auto sampler and 2 pumps was used for this study. The machine was connected to a Varian column (Pursuit PFP, 150 mm×4.6 mm, 5 μm, A3050150×046) optimized for catecholamine measurements in aqueous conditions. The mobile phase was consisted of 60% 0.1M citric acid (Sigma) and 40% 0.1M Na2HPO4 both in 0.3 mM HPLC-grade sodium octyl sulfate salt (Sigma) (7). The mobile phase was degassed using 0.2 μm filter and refreshed every week. The flow rate was set at 1.0 ml/min at room temperature and the detection was performed at 270 nm. To achieve maximum performance, the mobile phase was pumped at 0.1 ml/min flow the night before the experiment. The column was washed thoroughly with 50% methanol after each experiment. To calculate the amounts of catecholamines, the height of the peak generated by DHBA, NE, and L-DOPS were measured using Variant software. […]

[4] = based on the literature; cited from earlier work
[5] = subcutaneous administration; cited from earlier work

Structure (SMILES): CC(C)NCC(O)c1ccc(O)c(O)c1 (stereo not drawn) [ISO]
effect on slope of fEPSPs, Ts65Dn versus 2N (acute hippocampal slices; 6-month-old mice, stimulation of middle molecular layer, recording in granule cell layer): stronger effects on slope of fEPSPs in Ts65Dn than 2N mice | recorded response 30 min after application, Ts65Dn versus 2N (acute hippocampal slices; ISO 10 μM, 10 min, slices of 6-month old Ts65Dn and age-matched 2N): much stronger response in Ts65Dn than 2N mouse | change in population spike amplitude of fEPSPs (acute hippocampal slices; ISO 10 μM, 3- and 6-months-old 2N and Ts65Dn mice): significant increase in population spike amplitude | duration of enhancement of population spike amplitude (acute hippocampal slices; ISO 10 μM, 3-month-old 2N mice): at least 30 min | duration of increase of population spike amplitude (acute hippocampal slices; ISO 10 μM, 6 months old mice): > 1 h | slope and amplitude of excitatory postsynaptic potentials (EPSPs) (acute hippocampal slices; slices at age 3 months and 6 months, 2N and Ts65Dn mice): increase in both the slope and amplitude | EPSP responses in Ts65Dn slices compared with 2N (acute hippocampal slices; slices at age 6 months): consistently more robust

L-DOPS levels in tissues ([3]; six hours after administration, 2N and Ts65Dn mice, L-DOPS 1 mg/g with carbidopa 0.125 mg/g): present in all tissues, including brain | L-DOPS tissue levels, difference between genotypes ([3]; six hours after administration, 2N vs Ts65Dn, p=0.4894): no difference between genotypes
Structure (SMILES): N[C@H](C(=O)O)[C@H](O)c1ccc(O)c(O)c1 [L-DOPS, L-threo-3,4-dihydroxyphenylserine]
contextual memory / contextual learning (freezing on contextual day) (Ts65Dn mice [1]; 6-month-old Ts65Dn mice, 20 mg/ml L-DOPS + 2.5 mg/ml carbidopa, 50 μl/g s.c., 5 hours before each test, control carbidopa alone): significant improvement in contextual memory; also recorded: found to restore contextual learning; also recorded: able to alleviate cognitive failure; also recorded: contextual learning failure was reversed; also recorded: acted to restore contextual learning | difference in freezing between 2N and Ts65Dn mice in contextual test (Ts65Dn mice [1]; L-DOPS + carbidopa treated 2N vs Ts65Dn, One-way ANOVA p=0.5247): restored fully the difference in freezing; also recorded: no significant difference between the two groups | freezing measured on a minute-by-minute basis in contextual test (Ts65Dn mice [1]; L-DOPS + carbidopa treated Ts65Dn mice): increased freezing following the first minute | reduction of the deficiency in Ts65Dn mice (Ts65Dn mice [1]; L-DOPS treatment versus no treatment): 80% | how much less Ts65Dn mice remembered than their controls after treatment (Ts65Dn mice [1]; after treatment with L-DOPS, without treatment 44% less): 8% | nesting behavior (Ts65Dn mice [2]; drug period: L-DOPS 20 mg/ml + carbidopa 2.5 mg/ml, 50 μl/g s.c., p=0.0245): improved nesting; also recorded: significant improvement in the nesting behavior | nesting behavior after cessation of treatment (Ts65Dn mice [2]; no treatment (washout) period of two weeks, p=0.0121): again showed poor nesting behavior; also recorded: vanished 2 weeks later | NE levels in the HC of Ts65Dn mice relative to 2N mice ([3]; after L-DOPS 1 mg/g with carbidopa 0.125 mg/g): 96% | dose used safely in humans [4]: up to 1 gram per day | time to maximum brain NE levels [5]: ≤ 5 h

Structure (SMILES): O=C(NCCNCC(O)COc1ccc(O)cc1)N1CCOCC1 (stereo not drawn) [xamoterol]
contextual learning / contextual discrimination (freezing on contextual day) (Ts65Dn mice [1]; 9-month-old Ts65Dn mice, xamoterol 3 mg/kg s.c. 1 hour before each test, control saline): restored failed contextual learning; also recorded: found to restore contextual learning; also recorded: contextual learning failure was reversed; also recorded: acted to restore contextual learning; also recorded: significant improvement; also recorded: significant restoration of contextual discrimination | difference between 2N and Ts65Dn mice in percent of freezing on contextual day (Ts65Dn mice [1]; xamoterol treated 2N vs Ts65Dn, ANOVA F=0.392, p=0.844): no longer any differences were found
